{"source": "patent EP4603105A1", "about": "“PHARMACEUTICAL COMPOSITION CONTAINING CYCLIC COMPOUND HAVING SELECTIVE KRAS INHIBITORY EFFECT AGAINST HRAS AND NRAS” (CHUGAI SEIYAKU KABUSHIKI KAISHA, priority 2022, dated 2024)", "key": {"[1]": {"molecular_target": "GDP-bound NRAS wild-type protein (Homo sapiens, UniProt P01111)", "sequence (P01111 whole entry)": "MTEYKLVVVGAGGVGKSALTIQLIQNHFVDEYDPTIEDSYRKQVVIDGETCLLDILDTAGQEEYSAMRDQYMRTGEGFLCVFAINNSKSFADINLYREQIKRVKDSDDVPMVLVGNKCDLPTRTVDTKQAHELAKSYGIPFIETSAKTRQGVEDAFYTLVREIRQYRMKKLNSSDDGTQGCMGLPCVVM", "assay": "Binding to NRAS by surface plasmon resonance (SPR), KD and KD ratio to KRAS", "in_short": "(§1)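 Compound binding is evaluated by SPR single-cycle kinetics, with concentrations added intermittently from low to high for 75 s each. Target surfaces carry GDP-loaded biotinylated Avi-RAS at about 100–300 RU, regenerated after each cycle; temperature 30°C. A 1:1 binding model gives KD.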"}, "[2]": {"molecular_target": "HRAS wild-type protein (Homo sapiens, UniProt P01112)", "sequence (P01112 whole entry)": "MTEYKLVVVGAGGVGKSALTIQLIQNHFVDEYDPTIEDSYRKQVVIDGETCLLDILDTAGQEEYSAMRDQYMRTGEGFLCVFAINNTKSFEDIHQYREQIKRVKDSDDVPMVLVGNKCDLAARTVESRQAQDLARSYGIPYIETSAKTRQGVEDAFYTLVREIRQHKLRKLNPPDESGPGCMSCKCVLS", "assay": "Binding to HRAS by surface plasmon resonance (SPR), KD and KD ratio to KRAS", "in_short": "as §1"}, "[3]": {"tested_on": "human lung cancer strain NCI-H441", "format": "cell-based", "in_short": "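Proliferation was scored by […] measured after the reagent was added to cultures kept at 37°C in 5% carbon dioxide.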"}, "[4]": {"conditions": "ratio of KD for GDP-bound NRAS wild-type protein to KD for KRAS"}, "[5]": {"conditions": "ratio of KD for HRAS wild-type protein to KD for KRAS"}, "[6]": {"conditions": "ratio of the KD value with respect to GDP-bound NRAS wild-type protein to the KD value with respect to KRAS"}, "[7]": {"conditions": "ratio of the KD value with respect to HRAS wild-type protein to the KD value with respect to KRAS"}}, "note": "Where a SMILES comes first, the peptide text is derived from it. Bridges are numbered along the chain shown (N, C = ends). [ ]: non-standard residue; d: D form. The star is where a group is joined. hPhe(3-Cl-4-CF3) = N[C@@H](CCc1ccc(C(F)(F)F)c(Cl)c1)C(=O)O; NPrPhe(4-CF3) = CCCN[C@@H](Cc1ccc(C(F)(F)F)cc1)C(=O)O; NMeGly(cPent) = CN[C@H](C(=O)O)C1CCCC1; Hyp = O=C(O)[C@@H]1C[C@@H](O)CN1; NMeD = CN[C@@H](CC(=O)O)C(=O)O; NMeL = CN[C@@H](CC(C)C)C(=O)O; Morpholide = C1CN(*)CCO1; Ac5c = NC1(C(=O)O)CCCC1; Sar = CNCC(=O)O", "data": [{"smiles": "CCCN1C(=O)CN(C)C(=O)CN(C)C(=O)[C@H]([C@@H](C)CC)NC(=O)[C@H](CC(C)C)N(C)C(=O)C[C@@H](C(=O)N2CCOCC2)N(C)C(=O)[C@H](C2CCCC2)N(C)C(=O)C2(CCCC2)NC(=O)[C@@H]2C[C@@H](OC)CN2C(=O)[C@H](CCc2ccc(C(F)(F)F)c(Cl)c2)NC(=O)CN(C)C(=O)[C@@H]1Cc1ccc(C(F)(F)F)cc1", "note": "[PP0262] ([NMeL]I[Sar][Sar][NPrPhe(4-CF3)][Sar][hPhe(3-Cl-4-CF3)][Hyp](Me)[Ac5c][NMeGly(cPent)][NMeD]-Morpholide; lactam N-11)", "values": [{"measurement": "NRAS /KRAS", "setting": "[1]; [4]", "value": "B (a compound having 3 or more and less than 10 is denoted as B)"}, {"measurement": "HRAS /KRAS", "setting": "[2]; [5]", "value": "B (a compound having 3 or more and less than 10 is denoted as B)"}, {"measurement": "IC50", "setting": "[3]", "value": 1.9, "unit": "nM"}]}, {"smiles": "CCO[C@@H]1C[C@H]2C(=O)NC3(CCC3)C(=O)N(C)[C@@H](C3CCCC3)C(=O)N(C)[C@H](C(=O)N(C)C)CC(=O)N(C)[C@@H](C)C(=O)N[C@@H]([C@@H](C)CC)C(=O)N(C)CC(=O)N(C)[C@H]3C/C=C\\CCN(C3=O)[C@@H](Cc3ccc(C(F)(F)F)cc3)C(=O)N(C)CC(=O)N[C@@H](CCc3cc(F)c(C(F)(F)F)c(F)c3)C(=O)N2C1", "note": "[PP1108]", "values": [{"measurement": "NRAS /KRAS", "setting": "[1]; [4]", "value": "A (a compound having 10 or more and less than 20 is denoted as A)"}, {"measurement": "HRAS /KRAS", "setting": "[2]; [5]", "value": "A (a compound having 10 or more and less than 20 is denoted as A)"}, {"measurement": "IC50", "setting": "[3]", "value": 28.3, "unit": "nM"}]}, {"smiles": "CCO[C@@H]1C[C@H]2C(=O)NC3(CC(C)(C)C3)C(=O)N(C)[C@@H](C3CCCC3)C(=O)N(C)[C@H](C(=O)N(C)C)CC(=O)N(C)[C@@H](CC)C(=O)N[C@@H]([C@@H](C)CC)C(=O)N(C)CC(=O)N(C)[C@H]3C/C=C\\CCN(C3=O)[C@@H](Cc3ccc(C(F)(F)F)cc3)C(=O)N(C)CC(=O)N[C@@H](CCc3ccc(C(F)(F)F)c(Cl)c3)C(=O)N2C1", "note": "[PP1746]", "values": [{"measurement": "NRAS /KRAS", "setting": "[1]; ratio of KD value for GDP-bound NRAS wild-type protein to KD value for KRAS (SPR)", "value": "A (a compound having 10 or more and less than 20 is denoted as A)"}, {"measurement": "HRAS /KRAS", "setting": "[2]; ratio of KD value for HRAS wild-type protein to KD value for KRAS (SPR)", "value": "A (a compound having 10 or more and less than 20 is denoted as A)"}, {"measurement": "IC50", "setting": "[3]", "value": 1.9, "unit": "nM"}]}, {"smiles": "CCCOC[C@H]1C(=O)N[C@@H]([C@@H](C)CC)C(=O)N(C2CC2)CC(=O)N(C)[C@H]2C/C=C\\CCN(C2=O)[C@@H](Cc2ccc(C)cc2)C(=O)N(C)CC(=O)N[C@@H](CCc2ccc(C(F)(F)F)c(OC)c2)C(=O)N2C[C@H](OCC)C[C@H]2C(=O)N(C)C2(CCC2)C(=O)N(C)[C@@H](C2CCCC2)C(=O)N(C)[C@H](C(=O)N(C)C)CC(=O)N1C", "note": "[PP2330]", "values": [{"measurement": "NRAS /KRAS", "setting": "[1]; [6]", "value": "A (a compound having 10 or more and less than 20 is denoted as A)"}, {"measurement": "HRAS /KRAS", "setting": "[2]; [7]", "value": "A (a compound having 10 or more and less than 20 is denoted as A)"}, {"measurement": "IC50", "setting": "[3]", "value": 5.5, "unit": "nM"}]}, {"smiles": "CC[C@H](C)[C@@H]1NC(=O)[C@H](CC(C)C)N(C)C(=O)C[C@@H](C(=O)N2CCOCC2)N(C)C(=O)[C@H](C2CCCC2)N(C)C(=O)C2(CCCC2)NC(=O)[C@H](C)N(CC)C(=O)[C@H](CCc2cc(F)c(C(F)(F)F)c(F)c2)NC(=O)CN(C)C(=O)[C@H](Cc2ccc(C(F)(F)F)cc2)N2CCCCC[C@@H](C2=O)N(C)C(=O)CN(C)C1=O", "note": "[PP0515]", "values": [{"measurement": "NRAS /KRAS", "setting": "[1]; [6]", "value": "B (a compound having 3 or more and less than 10 is denoted as B)"}, {"measurement": "HRAS /KRAS", "setting": "[2]; [7]", "value": "B (a compound having 3 or more and less than 10 is denoted as B)"}, {"measurement": "IC50", "setting": "[3]", "value": 633, "unit": "nM"}]}, {"smiles": "CCC(CC)[C@H]1C(=O)N(C)[C@H](C(=O)N(C)C)CC(=O)N(C)[C@@H](COC)C(=O)N[C@@H]([C@@H](C)CC)C(=O)N(C)CC(=O)N(C)[C@H]2C/C=C\\CCN(C2=O)[C@@H](Cc2ccc(C(F)(F)F)cc2)C(=O)N(C)CC(=O)N[C@@H](CCc2cc(F)c(C(F)(F)F)c(F)c2)C(=O)N2CCCCC[C@H]2C(=O)NC2(CC(C)(C)C2)C(=O)N1C", "note": "[PP3030]", "values": [{"measurement": "NRAS /KRAS", "setting": "[1]; [4]", "value": "AA (a compound having 20 or more is denoted as AA)"}, {"measurement": "HRAS /KRAS", "setting": "[2]; [5]", "value": "A (a compound having 10 or more and less than 20 is denoted as A)"}, {"measurement": "IC50", "setting": "[3]", "value": 22.4, "unit": "nM"}]}, {"smiles": "CCO[C@@H]1C[C@H]2C(=O)NC3(CC(C)(C)C3)C(=O)N(C)[C@@H](C3CCCC3)C(=O)N(C)[C@H](C(=O)N(C)CC)CC(=O)N(C)[C@@H](CC(C)C)C(=O)N[C@@H]([C@@H](C)OCC)C(=O)N(C)CC(=O)N(C)[C@H]3C/C=C\\CCN(C3=O)[C@@H](Cc3ccc(C(F)(F)F)cc3)C(=O)N(C)CC(=O)N[C@@H](CCc3cc(F)c(C(F)(F)F)c(F)c3)C(=O)N2C1", "note": "[PP1919]", "values": [{"measurement": "NRAS /KRAS", "setting": "[1]; [6]", "value": "A (a compound having 10 or more and less than 20 is denoted as A)"}, {"measurement": "HRAS /KRAS", "setting": "[2]; [7]", "value": "A (a compound having 10 or more and less than 20 is denoted as A)"}, {"measurement": "IC50", "setting": "[3]", "value": 6.3, "unit": "nM"}]}, {"smiles": "CCCN(C)C(=O)[C@@H]1CC(=O)N(C)[C@@H](COCC)C(=O)N[C@@H]([C@@H](C)CC)C(=O)N(C)CC(=O)N(C)[C@H]2C/C=C\\CCN(C2=O)[C@@H](Cc2ccc(C(F)(F)F)cc2)C(=O)N(C)CC(=O)N[C@@H](CCc2cc(F)c(C(F)(F)F)c(F)c2)C(=O)N2C[C@@H](C)C[C@H]2C(=O)NC2(CC(C)(C)C2)C(=O)N(C)[C@@H](C2CCCC2)C(=O)N1C", "note": "[PP2041]", "values": [{"measurement": "NRAS /KRAS", "setting": "[1]; [6]", "value": "A (a compound having 10 or more and less than 20 is denoted as A)"}, {"measurement": "HRAS /KRAS", "setting": "[2]; [7]", "value": "A (a compound having 10 or more and less than 20 is denoted as A)"}, {"measurement": "IC50", "setting": "[3]", "value": 7.7, "unit": "nM"}]}]}
